Laboratory results taken from patent publication US20240174669A1, “CRYSTALLINE FORMS OF A PARP1 INHIBITOR” (XinThera, Inc., priority 2022, published 2024).
In brackets after ≈: the same amount, converted by molar mass.

Experiments:
Format in all cases: physicochemical
[1] = Purity of filtrates / degradation in bio-relevant media (FeSSIF); settings: for HPLC Purity API, Sample 1 / impurity RRT 1.74 / impurity RRT 1.91 / impurity RRT 1.95 / HPLC Purity API, Sample 2 / impurity RRT 1.09: FeSSIF filtrate, 220 nm; for HPLC Purity API, Sample 1 / impurity RRT 1.74 / impurity RRT 1.91 / impurity RRT 1.95 / impurity RRT 1.09: Sample 1; for Filtrate Purity 220 nm-24 h: 37° C., starting purity 99.26%
Description: About 15 mg of freebase Form II was weighed into sample vials, and then 3 mL of each media was added to make suspensions, respectively. At 0.5, 2 and 24 hours, about 1 mL of each suspension was filtered, the filtrate was analyzed by HPLC and pH, and the filter cake was analyzed by XRPD. Duplicated samples were prepared for each media.
Compared to control pH buffers, the solubility increased to ˜20 μg/mL in FaSSIF and ˜100 μg/mL in FeSSIF, possibly due to the solubilization effect of bile salt. […] Compared to FaSSIF, concentration of bile salt is 5-fold in FeSSIF. The degradation issue in FeSSIF was confirmed with another two batches (Lot #3 and Lot #2) of freebase Form II at 0.5-8 hours, as summarized in Table 12 and Table 13. Several impurities increased rapidly with time.
HPLC analysis was performed with an Agilent HPLC 1260 series instrument.

[2] = Solubility in 0.5% MC and 0.5% MC pH 3 citrate buffer; settings: for solubility: thermodynamic from solid
Description: Solubility of freebase Form II was first measured in 0.5% MC (400 cPs) and 0.5% MC (400 cPs) pH 3 citrate buffer. About 5 mg of Form II (Lot#1) was stirred in 1 mL of media at RT for ˜2 hours. The suspension was filtered, with filtrates analyzed by HPLC and remaining solids tested by XRPD. […] Therefore, 0.5% MC pH 3 buffer was selected for suspension formulation stability study.

[3] = Suspension formulation stability in 0.5% MC pH 3 buffer
Description: About 9 mg of free base Form II (Lot#1) was added into 0.3 mL of 0.5% MC pH 3 buffer, and stirred at RT for 30 min to make a suspension with 30 mg/mL drug loading (Day 0 sample). The suspension samples in vials, prepared at the same time, were kept at RT for 3 or 7 days. At each time point, the whole suspension in a vial was dissolved in 8.7 mL water/ACN (1:1, v/v) and then was analyzed by HPLC. Sedimentation of suspension was checked by visual observation, and the solids in another vial were tested by PLM and XRPD.

Solid-state stability = test: Solid-state stability
Description: Solid-state stability of free base Form II (Lot#1) was conducted at 60° C. (capped) and 40° C./75% RH (open) for 7 days. The stability sample was dissolved in diluent to prepare solution at ˜0.5 mg/mL for HPLC purity analysis. Solid samples were analyzed by XRPD to check the crystalline form. […] (capped) and 40° C./75% RH (open) after 7 days.

[4] = DVS moisture sorption (hygroscopicity)
Description: Moisture sorption/desorption data were collected on a DVS instrument. About 75 mg of a sample was placed into a tared sample chamber and automatically weighed. The anhydrate was analyzed with the setting parameters in the table below.

[5] = 0.5% MC pH 3 buffer (100 mM citrate), RT, ~2 hours
[6] = 0.5% MC pH 3 citrate buffer, up to 7 days

CNC(=O)c1ccc(N2CCN(Cc3cnc4cc(C5CC5)c(=O)[nH]c4c3)CC2)cn1 [Freebase Form II, 5-(4-((7-cyclopropyl-6-oxo-5,6-dihydro-1,5-naphthyridin-3-yl)methyl)piperazin-1-yl)-N-methylpicolinamide]
purity of filtrates ([1]; FeSSIF): decreased rapidly | HPLC Purity API, Sample 1 ([1]; 0.5 hr, listed as Lot# 2): 96.72 area % | impurity RRT 1.74 ([1]; 0.5 hr, listed as Lot# 2): 0.33 area % | impurity RRT 1.91 ([1]; 0.5 hr, listed as Lot# 2): 1.00 area % | impurity RRT 1.95 ([1]; 0.5 hr, listed as Lot# 2): 0.32 area % | HPLC Purity API, Sample 1 ([1]; 0.5 hr, listed as Lot# 3): 92.74 area % | impurity RRT 1.74 ([1]; 0.5 hr, listed as Lot# 3): 0.27 area % | impurity RRT 1.91 ([1]; 0.5 hr, listed as Lot# 3): 0.72 area % | impurity RRT 1.95 ([1]; 0.5 hr, listed as Lot# 3): 0.24 area % | HPLC Purity API, Sample 2 ([1]; 0.5 hr, listed as Lot# 2): 96.89 area % | HPLC Purity API, Sample 2 ([1]; 0.5 hr, listed as Lot# 3): 92.57 area % | HPLC Purity API, Sample 1 ([1]; 2 hr, listed as Lot# 2): 80.67 area % | impurity RRT 1.09 ([1]; 2 hr, listed as Lot# 2): 1.18 area % | impurity RRT 1.74 ([1]; 2 hr, listed as Lot# 2): 1.52 area % | impurity RRT 1.91 ([1]; 2 hr, listed as Lot# 2): 5.63 area % | impurity RRT 1.95 ([1]; 2 hr, listed as Lot# 2): 0.89 area % | HPLC Purity API, Sample 1 ([1]; 2 hr, listed as Lot# 3): 91.52 area % | impurity RRT 1.09 ([1]; 2 hr, listed as Lot# 3): 0.22 area % | impurity RRT 1.74 ([1]; 2 hr, listed as Lot# 3): 0.35 area % | impurity RRT 1.91 ([1]; 2 hr, listed as Lot# 3): 1.09 area % | impurity RRT 1.95 ([1]; 2 hr, listed as Lot# 3): 0.39 area % | HPLC Purity API, Sample 2 ([1]; 2 hr, listed as Lot# 2): 77.22 area % | HPLC Purity API, Sample 2 ([1]; 2 hr, listed as Lot# 3): 90.33 area % | HPLC Purity API, Sample 1 ([1]; 4 hr, listed as Lot# 2): 65.06 area % | impurity RRT 1.09 ([1]; 4 hr, listed as Lot# 2): 3.56 area % | impurity RRT 1.74 ([1]; 4 hr, listed as Lot# 2): 2.64 area % | impurity RRT 1.91 ([1]; 4 hr, listed as Lot# 2): 9.12 area % | impurity RRT 1.95 ([1]; 4 hr, listed as Lot# 2): 1.67 area % | HPLC Purity API, Sample 1 ([1]; 4 hr, listed as Lot# 3): 84.44 area % | impurity RRT 1.09 ([1]; 4 hr, listed as Lot# 3): 1.00 area % | impurity RRT 1.74 ([1]; 4 hr, listed as Lot# 3): 0.82 area % | impurity RRT 1.91 ([1]; 4 hr, listed as Lot# 3): 3.55 area % | impurity RRT 1.95 ([1]; 4 hr, listed as Lot# 3): 0.69 area % | HPLC Purity API, Sample 2 ([1]; 4 hr, listed as Lot# 2): 60.63 area % | HPLC Purity API, Sample 2 ([1]; 4 hr, listed as Lot# 3): 77.77 area % | HPLC Purity API, Sample 1 ([1]; 8 hr, listed as Lot# 2): 50.99 area % | impurity RRT 1.09 ([1]; 8 hr, listed as Lot# 2): 6.24 area % | impurity RRT 1.74 ([1]; 8 hr, listed as Lot# 2): 5.16 area % | impurity RRT 1.91 ([1]; 8 hr, listed as Lot# 2): 8.77 area % | impurity RRT 1.95 ([1]; 8 hr, listed as Lot# 2): 3.62 area % | HPLC Purity API, Sample 1 ([1]; 8 hr, listed as Lot# 3): 66.91 area % | impurity RRT 1.09 ([1]; 8 hr, listed as Lot# 3): 4.10 area % | impurity RRT 1.74 ([1]; 8 hr, listed as Lot# 3): 2.41 area % | impurity RRT 1.91 ([1]; 8 hr, listed as Lot# 3): 7.91 area % | impurity RRT 1.95 ([1]; 8 hr, listed as Lot# 3): 1.57 area % | HPLC Purity API, Sample 2 ([1]; 8 hr, listed as Lot# 2): 47.77 area % | HPLC Purity API, Sample 2 ([1]; 8 hr, listed as Lot# 3): 57.55 area % | Filtrate Purity 220 nm-24 h ([1]; FeSSIF): 55% | Filtrate Purity 220 nm-24 h ([1]; SGF): 99.28% | solubility ([2]; 0.5% MC (400 cPs) pH 3 citrate buffer, pH 3, aqueous with cosolvent or surfactant or cyclodextrin, 0.5% MC pH 3 buffer (100 mM citrate), initial pH 3.0, RT, ~2 hours): 4500 µg/mL (≈ 10800 µM) | solubility ([2]; 0.5% MC (400 cPs), aqueous with cosolvent or surfactant or cyclodextrin, 0.5% MC, RT, ~2 hours): < 10 µg/mL | solubility ([2]; 0.5% MC (400 cPs), aqueous with cosolvent or surfactant or cyclodextrin, RT, ~2 hours): 6 µg/mL (≈ 14.3 µM) | Filtrate Purity 254 nm [2, 5]: 99.25% | XRPD of remaining solids [2, 5]: Unchanged | form change (XRPD) ([2]; both media: 0.5% MC and 0.5% MC pH 3 citrate buffer): No form change was observed | crystalline form in suspension [3, 6]: remained unchanged | purity change in suspension [3, 6]: no purity decrease was observed | Purity (area %, 220 nm) Initial ([3]; initial, before suspension): 99.25 area % | sedimentation of suspension (visual observation) ([3]; kept at RT for 3 or 7 days, homogeneous again after swirling 1 min): Sedimentation was observed | Purity (area %, 220 nm) Day 0 ([3]; suspension in 0.5% MC pH 3 buffer (100 mM citrate), 30 mg/mL, RT, Day 0): 99.30 area % | Purity (area %, 220 nm) Day 3 ([3]; suspension in 0.5% MC pH 3 buffer (100 mM citrate), 30 mg/mL, RT, Day 3): 99.28 area % | Purity (area %, 220 nm) Day 7 ([3]; suspension in 0.5% MC pH 3 buffer (100 mM citrate), 30 mg/mL, RT, Day 7): 99.26 area % | Purity (area %) @7 D 40° C./75% RH (Solid-state stability; 40° C./75% RH (open), 7 days): 99.26 area % | XRPD @7 D 40° C./75% RH (Solid-state stability; 40° C./75% RH (open), 7 days): Unchanged | solid-state stability (Solid-state stability; 60° C. (capped) and 40° C./75% RH (open), after 7 days): physically and chemically stable | Purity (area %) @7 D 60° C. (Solid-state stability; 60° C. (capped), 7 days): 99.25 area % | XRPD @7 D 60° C. (Solid-state stability; 60° C. (capped), 7 days): Unchanged | Purity (area %) Initial (Solid-state stability; initial): 99.26 area % | crystalline form after DVS test [4]: remained unchanged | hygroscopicity (DVS) [4]: non-hygroscopic | water uptake (DVS) ([4]; at 80% RH, 25° C.): 0.19%
